Reference: US20030148960A1, “Combination therapy of angiotensin converting enzyme inhibitor and side-effect-reduced amount of aldosterone antagonist for treatment of cardiovascular disease” (G.D. Searle & Co., priority 1995, published 2003)

Assays:
[1] = tested on: patients with symptomatic heart failure; test: Human clinical trial: incidence and predictors of hyperkalemia (Cox regression); conditions: type of ACE-I as predictor; step-wise Cox regression; patients on spironolactone or placebo
Source text: In this, analysis, the risk ratio can be thought of as the probability that the patient with the risk factor will develop hyperkalemia, relative to the probability that a patient without the risk factor will develop it.

refractory CHF = conditions: 50 mg/day to 100 mg/day (average 73 mg/day) in combination with captopril; cited from earlier work
[2] = tested on: patients afflicted with congestive heart failure; conditions: 100 mg/day coadministered with an ACE inhibitor; cited from earlier work
[3] = tested on: myocardial fibrosis in animal models; conditions: cited from earlier work
[4] = tested on: patients with symptomatic heart failure; test: Human clinical trial: clinical laboratory values (neurohormones, hematology, biochemistry); conditions: for PRA (plasma renin activity), Week 12 mean change: Week 12 vs baseline, with stable ACE inhibitor and loop diuretic
[5] = tested on: patients with symptomatic heart failure; test: Human clinical trial: cardiac assessments and changes in patient therapy; type: in vivo
Source text: (§1) Cardiac assessments that included blood pressure, pulse, sodium retention score (general assessment of a patient's edematous state was derived from the summation of scores obtained from Table I), NYHA classification, and
All statistical methods were two-sided.

[6] = tested on: patients with symptomatic heart failure; test: Human clinical trial: hospitalizations and deaths; type: in vivo
Source text: A breakdown of the hospitalizations is as follows:

[7] = tested on: patients with symptomatic heart failure; test: Human clinical trial: change in weight and vital signs; type: in vivo
Source text: Laboratory Measurements: The following information was obtained from each patient at baseline:
as §1
All statistical methods were two-sided.

[8] = tested on: patients with symptomatic heart failure; test: Human clinical trial: incidence of adverse events, intent-to-treat cohort; type: in vivo

## C[C@H](CS)C(=O)N1CCC[C@H]1C(=O)O [Captopril, captopril]
[1]
  Risk ratio of hyperkalemia, captopril vs other ACE-I: about one-third

## CC(=O)S[C@@H]1CC2=CC(=O)CC[C@]2(C)[C@H]2CC[C@@]3(C)[C@@H](CC[C@@]34CCC(=O)O4)[C@H]12 [Spironolactone, 17-hydroxy-7α-mercapto-3-oxo-17α-pregn-4-ene-21-carboxylic acid γ-lactone acetate]
Refractory CHF
  Control of refractory CHF: effective to control refractory CHF without serious incidents of hyperkalemia
[2]
  Patients in whom treatment was highly effective: 13 of 16
[3]
  Effect on myocardial fibrosis: prevents myocardial fibrosis
[4]; 12.5 mg/d
  PRA (plasma renin activity), Week 12 mean change: 9.90 NgAngl/L/s
[4]; 25 mg/d
  PRA (plasma renin activity), Week 12 mean change: 9.33 NgAngl/L/s
[4]; 50 mg/d
  PRA (plasma renin activity), Week 12 mean change: 13.18 NgAngl/L/s
[4]; 75 mg/d
  PRA (plasma renin activity), Week 12 mean change: 10.23 NgAngl/L/s
[4]; Day 9, Week 4 and Week 12, P≦0.001
  Change from baseline in PRA, dose response: higher doses of spironolactone associated with greater increases in PRA
[4]; all active treatments, all treatment visits
  N-Terminal ANF change from baseline: decreases from baseline
[4]; all treatment period visits, p<0.001
  Change from baseline in serum potassium, dose response: Higher doses of spironolactone were associated with larger increases in potassium
[4]; baseline to 12 week visit, p=0.002
  Urinary aldosterone excretion, dose response: Greater increases were seen at higher doses
[5]; Day 9, p=0.019, not seen at later visits
  Sodium retention score, dose response: higher doses showing more reduction in sodium retention score
[5]; Week 8, p=0.004, not observed at Week 12
  Changes in loop diuretic therapy: more patients on the higher doses of spironolactone had decreases in the loop diuretic dose compared to the placebo group
[5]; spironolactone groups vs placebo
  NYHA Class: the difference was not statistically significant
[6]; 12.5 mg
  Hospitalizations, number of patients: 3 Patients
  Hospitalizations, percent of patients: (7.3%)
[6]; 25 mg
  Hospitalizations, number of patients: 3 Patients
  Hospitalizations, percent of patients: (6.6%)
[6]; 50 mg
  Hospitalizations, number of patients: 13 Patients
  Hospitalizations, percent of patients: (27.6%)
[6]; 75 mg
  Hospitalizations, number of patients: 6 Patients
  Hospitalizations, percent of patients: (14.6%)
[6]; patients previously at the 50 mg dose
  Deaths within 30 days after the study was completed: Three patients died within 30 days after the study was completed
[7]; 25 mg, 50 mg and 75 mg groups, all visits
  Change in mean systolic and diastolic blood pressure (standing and supine): decreases in mean systolic and diastolic blood pressure
[7]; 50 mg/d, Week 12, with stable ACE inhibitor and loop diuretic
  Mean change in weight from baseline to Week 12: 0.62 (2.05)
[7]; 75 mg dose group, Day 9 and Week 4
  Change from baseline in body weight, dose response: more weight loss than other patients
[8]; 12.5 mg
  Incidence of URT infection: 4.9 Percentage of Patients
  Incidence of abdominal pain: 7.3 Percentage of Patients
  Incidence of angina pectoris: 19.5 Percentage of Patients
  Incidence of arthralgia: 4.9 Percentage of Patients
  Incidence of coughing: 4.9 Percentage of Patients
  Incidence of diarrhea: 4.9 Percentage of Patients
  Incidence of dizziness: 12.2 Percentage of Patients
  Incidence of dyspnea: 22.0 Percentage of Patients
  Incidence of fatigue: 12.2 Percentage of Patients
  Incidence of headache: 9.8 Percentage of Patients
  Incidence of hyperkalemia (adverse event): 2.4 Percentage of Patients
  Incidence of nausea: 2.4 Percentage of Patients
[8]; 25 mg
  Incidence of URT infection: 11.1 Percentage of Patients
  Incidence of abdominal pain: 8.9 Percentage of Patients
  Incidence of angina pectoris: 20.0 Percentage of Patients
  Incidence of arthralgia: 4.4 Percentage of Patients
  Incidence of coughing: 2.2 Percentage of Patients
  Incidence of diarrhea: 22.2 Percentage of Patients
  Incidence of dizziness: 13.3 Percentage of Patients
  Incidence of dyspnea: 15.6 Percentage of Patients
  Incidence of fatigue: 13.3 Percentage of Patients
  Incidence of headache: 2.2 Percentage of Patients
  Incidence of hyperkalemia (adverse event): 8.9 Percentage of Patients
  Incidence of nausea: 17.8 Percentage of Patients
[8]; 50 mg
  Incidence of URT infection: 8.7 Percentage of Patients
  Incidence of abdominal pain: 13.0 Percentage of Patients
  Incidence of angina pectoris: 8.7 Percentage of Patients
  Incidence of arthralgia: 8.7 Percentage of Patients
  Incidence of coughing: 4.3 Percentage of Patients
  Incidence of diarrhea: 8.7 Percentage of Patients
  Incidence of dizziness: 13.0 Percentage of Patients
  Incidence of dyspnea: 26.1 Percentage of Patients
  Incidence of fatigue: 15.2 Percentage of Patients
  Incidence of headache: 15.2 Percentage of Patients
  Incidence of hyperkalemia (adverse event): 15.2 Percentage of Patients
  Incidence of nausea: 6.5 Percentage of Patients
[8]; 75 mg
  Incidence of URT infection: 2.4 Percentage of Patients
  Incidence of abdominal pain: 7.3 Percentage of Patients
  Incidence of angina pectoris: 14.6 Percentage of Patients
  Incidence of arthralgia: 4.9 Percentage of Patients
  Incidence of coughing: 2.4 Percentage of Patients
  Incidence of diarrhea: 14.6 Percentage of Patients
  Incidence of dizziness: 17.1 Percentage of Patients
  Incidence of dyspnea: 24.4 Percentage of Patients
  Incidence of fatigue: 14.6 Percentage of Patients
  Incidence of headache: 7.3 Percentage of Patients
  Incidence of hyperkalemia (adverse event): 19.5 Percentage of Patients
  Incidence of nausea: 19.5 Percentage of Patients
